Results reported in US10508089B2, “Use of N-(1,3,4-Oxadiazol-2-yl)arylcarboxamides or their salts for controlling unwanted plants in areas of transgenic crop plants being tolerant to HPPD inhibitor herbicides” (BASF SE, priority 2014, dated 2019).
pIC50: −log10 of the molar value. Like-named read-outs stand apart in the source and are kept apart here.

How the values were obtained:
[1] = system: T3 cotton events expressing PfHPPD-Evo33; assay type: in vivo; conditions: 200 g Al/ha, post-emergence V3, scored after 14 days, field
wild type soybean Merlin = assay type: in vivo; conditions: 14 days after treatment, total 4
[2] = biological target: PfHPPD Evo 40 SEQ ID No 27 (Pseudomonas sp., UniProt P80064, A172V/A339E/A53E/D148E/D45N/E105D/E287Q/E300V/E334P/F143Y/G286D/G335S/H150N/H254A/H63N/I158V/I187A/I249V/K92N/L18F/N24G/N280D/S245T/S257K/S301E/T205S/V65I); experiment: biochemical; set-up: species or system Pseudomonas fluorescens
Chain of PfHPPD Evo 40 SEQ ID No 27 (P80064 1-354 with tags or gaps with the stated changes limits assumed): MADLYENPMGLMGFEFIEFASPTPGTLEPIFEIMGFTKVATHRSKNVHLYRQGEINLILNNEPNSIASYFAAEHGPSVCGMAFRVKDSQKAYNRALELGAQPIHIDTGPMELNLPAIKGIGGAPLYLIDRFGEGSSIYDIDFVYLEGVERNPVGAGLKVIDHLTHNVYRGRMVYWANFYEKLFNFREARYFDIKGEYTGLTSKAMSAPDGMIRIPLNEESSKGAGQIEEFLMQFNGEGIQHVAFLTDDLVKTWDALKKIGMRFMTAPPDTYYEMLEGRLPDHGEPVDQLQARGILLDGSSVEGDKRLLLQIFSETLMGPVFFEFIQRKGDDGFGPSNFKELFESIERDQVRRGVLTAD

[3] = system: T2 soybean events expressing PfHPPD-Evo40; assay type: in vivo; conditions: 14 days after treatment
[4] = system: T2 soybean events expressing PfHPPD-Evo41; assay type: in vivo; conditions: 14 days after treatment
[5] = system: T2 soybean events expressing PfHPPD-W336 (PfHPPD-G336W); assay type: in vivo; conditions: 14 days after treatment
[6] = system: T3 cotton events expressing PfHPPD-Evo41; assay type: in vivo; conditions: 200 g Al/ha, post-emergence V3, scored after 14 days, field
[7] = biological target: PfHPPD Evo 41 SEQ ID No 29 (Pseudomonas sp., UniProt P80064, A172V/A339Q/A53E/D148E/D45N/E105D/E287Q/E300V/E334P/F143Y/G286D/G335W/H150N/H254A/H63N/I158V/I187A/I249V/K338A/K92N/L18F/N24G/N280D/S245T/S257K/S301E/T205S/V65I); experiment: biochemical; set-up: species or system Pseudomonas fluorescens
Chain of PfHPPD Evo 41 SEQ ID No 29 (P80064 1-354 with tags or gaps with the stated changes limits assumed): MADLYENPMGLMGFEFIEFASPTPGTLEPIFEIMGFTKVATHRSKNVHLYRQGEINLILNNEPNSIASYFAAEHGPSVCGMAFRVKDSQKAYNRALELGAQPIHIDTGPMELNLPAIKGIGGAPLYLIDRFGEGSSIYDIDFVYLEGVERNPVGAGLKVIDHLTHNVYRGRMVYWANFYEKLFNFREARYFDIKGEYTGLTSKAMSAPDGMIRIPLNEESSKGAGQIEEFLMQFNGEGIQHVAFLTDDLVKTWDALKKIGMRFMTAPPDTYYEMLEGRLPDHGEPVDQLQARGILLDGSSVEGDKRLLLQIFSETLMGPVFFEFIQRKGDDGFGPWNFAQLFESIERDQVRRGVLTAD

FMP 37 SEQ ID No 9 = FMP 37 SEQ ID No 9 (Blepharisma japonicum, UniProt A8R3H6); experiment: Determination of HPPD activity in presence of N-(1,3,4-Oxadiazol-2-yl)arylcarboxamides (pI50); assay type: biochemical; conditions: negative log of molar concentration; inhibitor 0.1 to 100 μM; room temperature; 600 μM HPP
Chain of FMP 37 SEQ ID No 9 (A8R3H6 entry or part of it): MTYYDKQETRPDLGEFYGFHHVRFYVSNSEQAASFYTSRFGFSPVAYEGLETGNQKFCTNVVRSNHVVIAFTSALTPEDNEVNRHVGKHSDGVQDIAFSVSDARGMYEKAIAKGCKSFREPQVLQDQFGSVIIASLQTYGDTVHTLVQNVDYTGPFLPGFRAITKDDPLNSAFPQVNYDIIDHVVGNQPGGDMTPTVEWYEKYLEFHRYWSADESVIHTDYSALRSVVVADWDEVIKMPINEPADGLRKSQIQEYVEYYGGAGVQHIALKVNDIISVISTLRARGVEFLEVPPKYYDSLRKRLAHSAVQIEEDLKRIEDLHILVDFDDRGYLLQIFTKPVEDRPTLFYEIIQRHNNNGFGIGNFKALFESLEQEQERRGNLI
Experimental: (§1) HPPD activity was measured at room temperature by adding appropriate amounts of HPPD to a solution of 200 mM Tris-HCl pH 7.6, 10 mM ascorbate, 20 μM FeSO4, 650 units of catalase, 8 μg HGA dioxygenase (HGA: homogentisate) and 600 μM HPP in a total volume of 1 ml. Initial reaction rates in the absence or presence of inhibitors were determined from the increase in absorbance at 318 nm due to the formation of maleylacetoacetate (ϵ318=11,900 M−1 cm−1). pI50-values (the negative log values of the concentration of inhibitor necessary to inhibit 50% of the enzyme activity in molar concentration were determined from dose-response plots of HPPD activity versus inhibitor concentrations tested (0.1 to 100 μM) using the 4 Parameter Logistic Model or Sigmoidal Dose-Response Model of the ID Business Solutions Ltd. XLfit software suite. Due to the UV absorption of the HPPD inhibitors tested, inhibitor concentrations >100 μM could not be tested. In cases, the symbol “>” is used this means that the value was far higher than the one indicated but could not be precisely calculated within in the range of concentration of inhibitor tested.
(§2) In the 1st column of Table 8, the chemical compound employed in the assay is named (according to the numbering of the Tables 1 to 7, above). In columns 2, 3, 4, and 5 the pI50-values of the corresponding chemical compounds against various HPPD enzymes (name and SEQ ID Nos are indicated, respectively) are given.

Avena HPPD SEQ ID No 2 = Avena HPPD SEQ ID No 2 (Avena sativa, UniProt A0ACD5V6K6); experiment: as above; assay type: biochemical; conditions: negative log of molar concentration; inhibitor 0.1 to 100 μM; room temperature; 600 μM HPP
Chain of Avena HPPD SEQ ID No 2 (A0ACD5V6K6 entry or part of it): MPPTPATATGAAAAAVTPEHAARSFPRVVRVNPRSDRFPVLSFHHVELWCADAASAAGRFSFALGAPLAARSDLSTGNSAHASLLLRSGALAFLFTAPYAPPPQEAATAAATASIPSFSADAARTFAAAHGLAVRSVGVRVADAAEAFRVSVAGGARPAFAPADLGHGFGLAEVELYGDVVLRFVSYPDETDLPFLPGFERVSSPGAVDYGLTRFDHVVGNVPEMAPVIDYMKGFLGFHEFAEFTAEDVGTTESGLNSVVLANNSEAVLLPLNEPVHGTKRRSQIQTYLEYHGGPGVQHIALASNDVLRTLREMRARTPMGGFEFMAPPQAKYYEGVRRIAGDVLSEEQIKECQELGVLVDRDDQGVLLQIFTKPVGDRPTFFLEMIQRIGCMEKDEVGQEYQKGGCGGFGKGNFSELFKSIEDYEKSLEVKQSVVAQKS
Experimental: as §1, §2

SMILES: Cc1nnc(NC(=O)c2ccc(C(F)(F)F)c(S(C)(=O)=O)c2C)o1 [Compound 2-145]
- Average maximum phytotoxicity scoring ([1]; cotton event Evo33/1): 3 (“3” = high tolerance; 0%-10% damaged leaf area)
- Average maximum phytotoxicity scoring ([1]; cotton event Evo33/2): 3 (“3” = high tolerance; 0%-10% damaged leaf area)
- Average maximum phytotoxicity scoring ([1]; cotton event Evo33/3): 3 (“3” = high tolerance; 0%-10% damaged leaf area)
- Average maximum phytotoxicity scoring ([1]; cotton event Evo33/4): 3 (“3” = high tolerance; 0%-10% damaged leaf area)
- Average maximum phytotoxicity scoring ([1]; cotton event Evo33/5): 3 (“3” = high tolerance; 0%-10% damaged leaf area)
- Average maximum phytotoxicity scoring ([1]; cotton event Evo33/6): 3 (“3” = high tolerance; 0%-10% damaged leaf area)
- Number of plants categorized herbicide tolerance “0” (marginal; 41%-100% damaged leaf area) (wild type soybean Merlin; Merlin (wt), 6.25 g Al/ha): 4
- Number of plants categorized herbicide tolerance “1” (moderate; 26%-40% damaged leaf area) (wild type soybean Merlin; Merlin (wt), 6.25 g Al/ha): 0
- Number of plants categorized herbicide tolerance “2” (good; 16%-25% damaged leaf area) (wild type soybean Merlin; Merlin (wt), 6.25 g Al/ha): 0
- Number of plants categorized herbicide tolerance “3” (high; less than or equal to 15% damaged leaf area) (wild type soybean Merlin; Merlin (wt), 6.25 g Al/ha): 0
- Number of plants categorized herbicide tolerance “0” (marginal; 41%-100% damaged leaf area) (wild type soybean Merlin; Merlin, 25 g Al/ha): 4
- Number of plants categorized herbicide tolerance “1” (moderate; 26%-40% damaged leaf area) (wild type soybean Merlin; Merlin, 25 g Al/ha): 0
- Number of plants categorized herbicide tolerance “2” (good; 16%-25% damaged leaf area) (wild type soybean Merlin; Merlin, 25 g Al/ha): 0
- Number of plants categorized herbicide tolerance “3” (high; less than or equal to 15% damaged leaf area) (wild type soybean Merlin; Merlin, 25 g Al/ha): 0
- pIC50 [2]: 5.30
- Number of plants categorized herbicide tolerance “0” (marginal; 41%-100% damaged leaf area) ([3]; 6.25 g Al/ha, total 8): 0
- Number of plants categorized herbicide tolerance “1” (moderate; 26%-40% damaged leaf area) ([3]; 6.25 g Al/ha, total 8): 0
- Number of plants categorized herbicide tolerance “2” (good; 16%-25% damaged leaf area) ([3]; 6.25 g Al/ha, total 8): 0
- Number of plants categorized herbicide tolerance “3” (high; less than or equal to 15% damaged leaf area) ([3]; 6.25 g Al/ha, total 8): 8
- Number of plants categorized herbicide tolerance “0” (marginal; 41%-100% damaged leaf area) ([3]; 25 g Al/ha, total 12): 0
- Number of plants categorized herbicide tolerance “1” (moderate; 26%-40% damaged leaf area) ([3]; 25 g Al/ha, total 12): 0
- Number of plants categorized herbicide tolerance “2” (good; 16%-25% damaged leaf area) ([3]; 25 g Al/ha, total 12): 0
- Number of plants categorized herbicide tolerance “3” (high; less than or equal to 15% damaged leaf area) ([3]; 25 g Al/ha, total 12): 12
- Number of plants categorized herbicide tolerance “0” (marginal; 41%-100% damaged leaf area) ([3]; 50 g Al/ha, total 4): 0
- Number of plants categorized herbicide tolerance “1” (moderate; 26%-40% damaged leaf area) ([3]; 50 g Al/ha, total 4): 0
- Number of plants categorized herbicide tolerance “2” (good; 16%-25% damaged leaf area) ([3]; 50 g Al/ha, total 4): 0
- Number of plants categorized herbicide tolerance “3” (high; less than or equal to 15% damaged leaf area) ([3]; 50 g Al/ha, total 4): 4
- Number of plants categorized herbicide tolerance “0” (marginal; 41%-100% damaged leaf area) ([3]; 75 g Al/ha, total 4): 0
- Number of plants categorized herbicide tolerance “1” (moderate; 26%-40% damaged leaf area) ([3]; 75 g Al/ha, total 4): 0
- Number of plants categorized herbicide tolerance “2” (good; 16%-25% damaged leaf area) ([3]; 75 g Al/ha, total 4): 0
- Number of plants categorized herbicide tolerance “3” (high; less than or equal to 15% damaged leaf area) ([3]; 75 g Al/ha, total 4): 4
- Number of plants categorized herbicide tolerance “0” (marginal; 41%-100% damaged leaf area) ([4]; 6.25 g Al/ha, total 12): 0
- Number of plants categorized herbicide tolerance “1” (moderate; 26%-40% damaged leaf area) ([4]; 6.25 g Al/ha, total 12): 1
- Number of plants categorized herbicide tolerance “2” (good; 16%-25% damaged leaf area) ([4]; 6.25 g Al/ha, total 12): 0
- Number of plants categorized herbicide tolerance “3” (high; less than or equal to 15% damaged leaf area) ([4]; 6.25 g Al/ha, total 12): 11
- Number of plants categorized herbicide tolerance “0” (marginal; 41%-100% damaged leaf area) ([4]; 25 g Al/ha, total 16): 0
- Number of plants categorized herbicide tolerance “1” (moderate; 26%-40% damaged leaf area) ([4]; 25 g Al/ha, total 16): 0
- Number of plants categorized herbicide tolerance “2” (good; 16%-25% damaged leaf area) ([4]; 25 g Al/ha, total 16): 0
- Number of plants categorized herbicide tolerance “3” (high; less than or equal to 15% damaged leaf area) ([4]; 25 g Al/ha, total 16): 16
- Number of plants categorized herbicide tolerance “0” (marginal; 41%-100% damaged leaf area) ([4]; 50 g Al/ha, total 4): 0
- Number of plants categorized herbicide tolerance “1” (moderate; 26%-40% damaged leaf area) ([4]; 50 g Al/ha, total 4): 0
- Number of plants categorized herbicide tolerance “2” (good; 16%-25% damaged leaf area) ([4]; 50 g Al/ha, total 4): 2
- Number of plants categorized herbicide tolerance “3” (high; less than or equal to 15% damaged leaf area) ([4]; 50 g Al/ha, total 4): 2
- Number of plants categorized herbicide tolerance “0” (marginal; 41%-100% damaged leaf area) ([4]; 75 g Al/ha, total 4): 0
- Number of plants categorized herbicide tolerance “1” (moderate; 26%-40% damaged leaf area) ([4]; 75 g Al/ha, total 4): 0
- Number of plants categorized herbicide tolerance “2” (good; 16%-25% damaged leaf area) ([4]; 75 g Al/ha, total 4): 0
- Number of plants categorized herbicide tolerance “3” (high; less than or equal to 15% damaged leaf area) ([4]; 75 g Al/ha, total 4): 4
- Number of plants categorized herbicide tolerance “0” (marginal; 41%-100% damaged leaf area) ([5]; 6.25 g Al/ha, total 12): 1
- Number of plants categorized herbicide tolerance “1” (moderate; 26%-40% damaged leaf area) ([5]; 6.25 g Al/ha, total 12): 0
- Number of plants categorized herbicide tolerance “2” (good; 16%-25% damaged leaf area) ([5]; 6.25 g Al/ha, total 12): 0
- Number of plants categorized herbicide tolerance “3” (high; less than or equal to 15% damaged leaf area) ([5]; 6.25 g Al/ha, total 12): 11
- Number of plants categorized herbicide tolerance “0” (marginal; 41%-100% damaged leaf area) ([5]; 25 g Al/ha, total 16): 0
- Number of plants categorized herbicide tolerance “1” (moderate; 26%-40% damaged leaf area) ([5]; 25 g Al/ha, total 16): 2
- Number of plants categorized herbicide tolerance “2” (good; 16%-25% damaged leaf area) ([5]; 25 g Al/ha, total 16): 3
- Number of plants categorized herbicide tolerance “3” (high; less than or equal to 15% damaged leaf area) ([5]; 25 g Al/ha, total 16): 11
- Number of plants categorized herbicide tolerance “0” (marginal; 41%-100% damaged leaf area) ([5]; 50 g Al/ha, total 4): 0
- Number of plants categorized herbicide tolerance “1” (moderate; 26%-40% damaged leaf area) ([5]; 50 g Al/ha, total 4): 0
- Number of plants categorized herbicide tolerance “2” (good; 16%-25% damaged leaf area) ([5]; 50 g Al/ha, total 4): 1
- Number of plants categorized herbicide tolerance “3” (high; less than or equal to 15% damaged leaf area) ([5]; 50 g Al/ha, total 4): 3
- Number of plants categorized herbicide tolerance “0” (marginal; 41%-100% damaged leaf area) ([5]; 75 g Al/ha, total 4): 0
- Number of plants categorized herbicide tolerance “1” (moderate; 26%-40% damaged leaf area) ([5]; 75 g Al/ha, total 4): 1
- Number of plants categorized herbicide tolerance “2” (good; 16%-25% damaged leaf area) ([5]; 75 g Al/ha, total 4): 0
- Number of plants categorized herbicide tolerance “3” (high; less than or equal to 15% damaged leaf area) ([5]; 75 g Al/ha, total 4): 3
- Average maximum phytotoxicity scoring ([6]; cotton event Evo41/1): 3 (“3” = high tolerance; 0%-10% damaged leaf area)
- Average maximum phytotoxicity scoring ([6]; cotton event Evo41/2): 3 (“3” = high tolerance; 0%-10% damaged leaf area)
- Average maximum phytotoxicity scoring ([6]; cotton event Evo41/3): 3 (“3” = high tolerance; 0%-10% damaged leaf area)
- Average maximum phytotoxicity scoring ([6]; cotton event Evo41/4): 3 (“3” = high tolerance; 0%-10% damaged leaf area)
- Average maximum phytotoxicity scoring ([6]; cotton event Evo41/5): 3 (“3” = high tolerance; 0%-10% damaged leaf area)
- Average maximum phytotoxicity scoring ([6]; cotton event Evo41/6): 3 (“3” = high tolerance; 0%-10% damaged leaf area)
- Average maximum phytotoxicity scoring ([6]; cotton event Evo41/7): 3 (“3” = high tolerance; 0%-10% damaged leaf area)
- Average maximum phytotoxicity scoring ([6]; cotton event Evo41/8): 3 (“3” = high tolerance; 0%-10% damaged leaf area)
- Average maximum phytotoxicity scoring ([6]; cotton event Evo41/9): 3 (“3” = high tolerance; 0%-10% damaged leaf area)
- Average maximum phytotoxicity scoring ([6]; cotton event Evo41/10): 3 (“3” = high tolerance; 0%-10% damaged leaf area)
- Average maximum phytotoxicity scoring ([6]; cotton event Evo41/11): 3 (“3” = high tolerance; 0%-10% damaged leaf area)
- Average maximum phytotoxicity scoring ([6]; cotton event Evo41/12): 2 (“2” = good tolerance; 11%-15% damaged leaf area)
- Average maximum phytotoxicity scoring ([6]; cotton event Evo41/13): 3 (“3” = high tolerance; 0%-10% damaged leaf area)
- Average maximum phytotoxicity scoring ([6]; cotton event Evo41/14): 3 (“3” = high tolerance; 0%-10% damaged leaf area)
- Average maximum phytotoxicity scoring ([6]; cotton event Evo41/15): 3 (“3” = high tolerance; 0%-10% damaged leaf area)
- pIC50 [7]: 5.30
- pIC50 (FMP 37 SEQ ID No 9): 5.00
- pIC50 (Avena HPPD SEQ ID No 2): 5.80
